Measured values from ChEMBL document CHEMBL3526135, “Induction of xenobiotic receptors, transporters, and drug metabolizing enzymes by oxycodone” (Drug Metab Dispos, 2013).

Assays:
Format in all cases: ADME, organism-based
Parameters in all cases: dose 15 mg/kg, route intraperitoneal
Yc2/Gsta5 = experiment: Effect on Yc2/Gsta5 mRNA expression in Sprague-Dawley rat liver at 15 mg/kg, ip administered twice daily every 12 hrs for 8 days by microarray analysis relative to control; settings: read-out: FC
CYP4a10 = experiment: Effect on CYP4a10 mRNA expression in Sprague-Dawley rat liver at 15 mg/kg, ip administered twice daily every 12 hrs for 8 days by microarray analysis relative to control; settings: read-out: FC
CYP4b1 = experiment: Effect on CYP4b1 mRNA expression in Sprague-Dawley rat liver at 15 mg/kg, ip administered twice daily every 12 hrs for 8 days by microarray analysis relative to control; settings: read-out: FC
Abcb4 = experiment: Effect on Abcb4 mRNA expression in Sprague-Dawley rat liver at 15 mg/kg, ip administered twice daily every 12 hrs for 8 days by microarray analysis relative to control; settings: read-out: FC
Ugt1a1 = experiment: Effect on Ugt1a1 mRNA expression in Sprague-Dawley rat liver at 15 mg/kg, ip administered twice daily every 12 hrs for 8 days by microarray analysis relative to control; settings: read-out: FC
Slc21a10 = experiment: Effect on Slc21a10 mRNA expression in Sprague-Dawley rat liver at 15 mg/kg, ip administered twice daily every 12 hrs for 8 days by microarray analysis relative to control; settings: read-out: FC
CYP2a1 = experiment: Effect on CYP2a1 mRNA expression in Sprague-Dawley rat liver at 15 mg/kg, ip administered twice daily every 12 hrs for 8 days by microarray analysis relative to control; settings: read-out: FC
Slc16a10 = experiment: Effect on Slc16a10 mRNA expression in Sprague-Dawley rat liver at 15 mg/kg, ip administered twice daily every 12 hrs for 8 days by microarray analysis relative to control; settings: read-out: FC
AhR = experiment: Effect on AhR mRNA expression in Sprague-Dawley rat liver at 15 mg/kg, ip administered twice daily every 12 hrs for 8 days by microarray analysis relative to control; settings: read-out: FC
Rattus norvegicus [1] = experiment: Effect on CYP2d1 mRNA expression in Sprague-Dawley rat liver at 15 mg/kg, ip administered twice daily every 12 hrs for 8 days by qRT-PCR analysis relative to control; settings: in vivo
Slc25a15 = experiment: Effect on Slc25a15 mRNA expression in Sprague-Dawley rat liver at 15 mg/kg, ip administered twice daily every 12 hrs for 8 days by microarray analysis relative to control; settings: read-out: FC
Rattus norvegicus [2] = experiment: Effect on Por mRNA expression in Sprague-Dawley rat liver at 15 mg/kg, ip administered twice daily every 12 hrs for 8 days by qRT-PCR analysis relative to control; settings: in vivo
ABCB1 = experiment: Upregulation of ABCB1 protein expression in Sprague-Dawley rat liver microsomes at 15 mg/kg, ip administered twice daily every 12 hrs for 8 days by Western blot analysis relative to control; settings: read-out: FC
Slc25a29 = experiment: Effect on Slc25a29 mRNA expression in Sprague-Dawley rat liver at 15 mg/kg, ip administered twice daily every 12 hrs for 8 days by microarray analysis relative to control; settings: read-out: FC
Rattus norvegicus [3] = experiment: Effect on CYP3a1 mRNA expression in Sprague-Dawley rat liver at 15 mg/kg, ip administered twice daily every 12 hrs for 8 days by qRT-PCR analysis relative to control; settings: in vivo
CYP3a1 [4] = experiment: Effect on CYP3a1 mRNA expression in Sprague-Dawley rat liver at 15 mg/kg, ip administered twice daily every 12 hrs for 8 days by microarray analysis relative to control; settings: read-out: FC
Slc39a4 = experiment: Effect on Slc39a4 mRNA expression in Sprague-Dawley rat liver at 15 mg/kg, ip administered twice daily every 12 hrs for 8 days by microarray analysis relative to control; settings: read-out: FC
Rattus norvegicus [5] = experiment: Effect on Slc22a8 mRNA expression in Sprague-Dawley rat liver at 15 mg/kg, ip administered twice daily every 12 hrs for 8 days by qRT-PCR analysis relative to control; settings: in vivo
Slc2a2 = experiment: Effect on Slc2a2 mRNA expression in Sprague-Dawley rat liver at 15 mg/kg, ip administered twice daily every 12 hrs for 8 days by microarray analysis relative to control; settings: read-out: FC
Rattus norvegicus [6] = experiment: Effect on AhR mRNA expression in Sprague-Dawley rat liver at 15 mg/kg, ip administered twice daily every 12 hrs for 8 days by qRT-PCR analysis relative to control; settings: in vivo
CYP3A1 [7] = experiment: Upregulation of CYP3A1 protein expression in Sprague-Dawley rat liver microsomes at 15 mg/kg, ip administered twice daily every 12 hrs for 8 days by Western blot analysis relative to control; settings: read-out: FC

Structure (SMILES): COc1ccc2c3c1O[C@H]1C(=O)CC[C@@]4(O)[C@@H](C2)N(C)CC[C@]314.Cl [OXYCODONE HYDROCHLORIDE]
- fold induction at 8 days (Yc2/Gsta5): 7
- fold induction at 8 days (CYP4a10): 2
- fold induction at 8 days (CYP4b1): 1.9
- fold induction at 8 days (Abcb4): 1.5
- fold induction at 8 days (Ugt1a1): 1.6
- fold induction at 8 days (Slc21a10): 1.5
- fold induction at 8 days (CYP2a1): 1.7
- fold induction at 8 days (Slc16a10): 3
- fold induction at 8 days (AhR): 2.3
- Activity (Rattus norvegicus [1]): Active
- fold induction at 8 days (Slc25a15): 2.1
- Activity (Rattus norvegicus [2]): Active
- fold induction at 8 days (ABCB1): 3
- fold induction at 8 days (Slc25a29): 1.5
- Activity (Rattus norvegicus [3]): Active
- fold induction at 8 days (CYP3a1 [4]): 1.7
- fold induction at 8 days (Slc39a4): 1.6
- Activity (Rattus norvegicus [5]): Active
- fold induction at 8 days (Slc2a2): 1.5
- Activity (Rattus norvegicus [6]): Active
- fold induction at 8 days (CYP3A1 [7]): 12.2
